In ChEMBL document CHEMBL1139131, “Lead optimization of 5,6-diarylpyridines as CB1 receptor inverse agonists” (Bioorg Med Chem Lett, 2007):

Columns and labels:
[1] = target: Cannabinoid receptor 2 (Homo sapiens, UniProt P34972)
Description: Binding affinity at CB2 receptor

[2] = in vivo; settings: Sprague-Dawley, rat, brain, iv
Description: Ratio of drug level in brain to plasma in iv dosed Sprague-Dawley rat after 0.25 hr

[3] = in vivo; settings: Sprague-Dawley, rat, brain, iv; remark: listed apart in the source
Description: Ratio of drug level in brain to plasma in iv dosed Sprague-Dawley rat after 4 hrs

[4] = in vivo; settings: Sprague-Dawley, rat
Description: Volume of distribution in Sprague-Dawley rat

[5] = in vivo; settings: Sprague-Dawley, rat; remark: listed apart in the source
Description: Bioavailability in Sprague-Dawley rat

[6] = in vivo; settings: Sprague-Dawley, rat; remark: listed apart in the source
Description: Half life in Sprague-Dawley rat

[7] = in vivo; settings: Sprague-Dawley, rat; remark: listed apart in the source
Description: Plasma clearance in Sprague-Dawley rat

Cannabinoid receptor 2, sequence (P34972 whole entry): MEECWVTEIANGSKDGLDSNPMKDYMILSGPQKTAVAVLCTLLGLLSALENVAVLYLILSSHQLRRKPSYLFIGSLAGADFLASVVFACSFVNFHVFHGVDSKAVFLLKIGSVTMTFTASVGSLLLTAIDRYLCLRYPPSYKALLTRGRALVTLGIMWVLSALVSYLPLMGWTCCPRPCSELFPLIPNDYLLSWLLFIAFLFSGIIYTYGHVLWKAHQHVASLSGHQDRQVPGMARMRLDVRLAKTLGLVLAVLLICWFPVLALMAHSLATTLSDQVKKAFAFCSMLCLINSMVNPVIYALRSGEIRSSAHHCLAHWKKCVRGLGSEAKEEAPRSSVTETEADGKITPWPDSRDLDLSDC

Row | Compound | IC50 [1] [nM] | also measured
1 | N#Cc1cc(-c2ccc(Cl)cc2)c(-c2ccc(Cl)cc2Cl)nc1Oc1ccc(F)cc1 | 4400 | 
2 | CC(C)(C)C(=O)N1CCN(c2nc(-c3ccccc3Cl)c(-c3ccc(Cl)cc3)cc2C#N)CC1 | 1100 | 
3 | CC(C)N1CCN(c2nc(-c3ccccc3Cl)c(-c3ccc(Cl)cc3)cc2C#N)C(=O)C1=O | 715 | 
4 | N#Cc1cc(-c2ccc(Cl)cc2)c(-c2ccc(Cl)cc2Cl)nc1Oc1cccc(Cl)c1 | 4100 | 
5 | COc1ccc(Oc2nc(-c3ccc(Cl)cc3Cl)c(-c3ccc(Cl)cc3)cc2C#N)cc1 | 3800 | 
6 | N#Cc1cc(-c2ccc(Cl)cc2)c(-c2ccc(Cl)cc2Cl)nc1Oc1ccc(F)c(F)c1 | 4100 | Kp at […] [2]: 0.1; Kp at 4 h [3]: 0.61; Vd [4]: 1.5 L/kg; bioavailability [5]: 66%; half-life [6]: 5.6 h; clearance [7]: 3.5 mL/min/kg
7 | CC(C)(C)C#Cc1nc(-c2ccccc2Cl)c(-c2ccc(Cl)cc2)cc1C#N | 2100 | 
8 | CC(C)(O)C#Cc1nc(-c2ccccc2Cl)c(-c2ccc(Cl)cc2)cc1C#N | 1800 | 
9 | CCC(N)(C#Cc1nc(-c2ccccc2Cl)c(-c2ccc(Cl)cc2)cc1C#N)CC | 1100 | 
10 | N#Cc1cc(-c2ccc(Cl)cc2)c(-c2ccc(Cl)cc2Cl)nc1Oc1cc(F)cc(F)c1 | 320 | 
11 | N#Cc1cc(-c2ccc(Cl)cc2)c(-c2ccccc2Cl)nc1Oc1ccc(F)c(F)c1 | 5700 | 
12 | N#Cc1cc(-c2ccc(Cl)cc2)c(-c2ccc(Cl)cc2Cl)nc1Sc1ccc(F)cc1 | 5200 | 
13 | N#Cc1cc(-c2ccc(Cl)cc2)c(-c2ccccc2Cl)nc1-c1cccnc1 | 3700 | 
14 | Cn1cc(-c2nc(-c3ccccc3Cl)c(-c3ccc(Cl)cc3)cc2C#N)cn1 | 3300 | 
15 | N#Cc1cc(-c2ccc(Cl)cc2)c(-c2ccc(Cl)cc2Cl)nc1Nc1ccc(F)cc1 | 2800 | 
16 | CC(C)NC(=O)c1cc(-c2ccc(Cl)cc2)c(-c2ccc(Cl)cc2Cl)nc1Oc1ccc(F)c(F)c1 | 1600 | 
17 | CN(C)NC(=O)c1cc(-c2ccc(Cl)cc2)c(-c2ccc(Cl)cc2Cl)nc1Oc1ccc(F)c(F)c1 | 1800 | Kp at […] [2]: 1.2; Kp at 4 h [3]: 3; Vd [4]: 6.7 L/kg; bioavailability [5]: 26%; half-life [6]: 4.1 h; clearance [7]: 24 mL/min/kg
18 | N#Cc1cc(-c2ccc(Cl)cc2)c(-c2ccc(Cl)cc2Cl)nc1-n1ccnc1 | 310 | 

Row | Compound | IC50 [1] [nM] | also measured
19 | CC(C)(C)C(=O)Nc1nc(-c2ccc(Cl)cc2Cl)c(-c2ccc(Cl)cc2)cc1C#N | 1700 | 
20 | N#Cc1cc(-c2ccc(Cl)cc2)c(-c2ccc(Cl)cc2Cl)nc1OCCNC(=O)C1CCC1 | 450 | 
21 | N#Cc1cc(-c2ccc(Cl)cc2)c(-c2ccc(Cl)cc2Cl)nc1N1CCCCC1 | 4000 | 
22 | N#Cc1cc(-c2ccc(Cl)cc2)c(-c2ccc(Cl)cc2Cl)nc1OC1CCOC1 (configuration not stated) | 730 | 
23 | N#Cc1cc(-c2ccc(Cl)cc2)c(-c2ccc(Cl)cc2Cl)nc1Oc1cccc(F)c1 | 2300 | 
24 | N#Cc1cc(-c2ccc(Cl)cc2)c(-c2ccc(Cl)cc2Cl)nc1Oc1ccc(Cl)cc1 | 4200 | 
25 | CC(C)CNc1nc(-c2ccc(Cl)cc2Cl)c(-c2ccc(Cl)cc2)cc1C#N | 1800 | 
26 | N#Cc1cc(-c2ccc(Cl)cc2)c(-c2ccc(Cl)cc2Cl)nc1Oc1cc(Cl)cc(Cl)c1 | 5600 | 
27 | CC(C)Oc1nc(-c2ccc(Cl)cc2Cl)c(-c2ccc(Cl)cc2)cc1C#N | 860 | 
28 | N#Cc1cc(-c2ccc(Cl)cc2)c(-c2ccccc2Cl)nc1-c1cncnc1 | 4300 | 
29 | NC(=O)c1cc(-c2ccc(Cl)cc2)c(-c2ccc(Cl)cc2Cl)nc1Oc1ccc(F)c(F)c1 | 4900 | 
30 | N#Cc1cc(-c2ccc(Cl)cc2)c(-c2ccccc2Cl)nc1N1CCN(S(=O)(=O)c2cc(F)cc(F)c2)CC1 | 1400 | 
31 | N#Cc1cc(-c2ccc(Cl)cc2)c(-c2ccc(Cl)cc2Cl)nc1-n1nnc2ccccc21 | 465 | 
32 | N#Cc1cc(-c2ccc(Cl)cc2)c(-c2ccc(Cl)cc2Cl)nc1OCC1CCOC1 (configuration not stated) | 430 | 
33 | CC(C)(C)N1CCN(c2nc(-c3ccccc3Cl)c(-c3ccc(Cl)cc3)cc2C#N)CC1 | 2600 | 
34 | N#Cc1cc(-c2ccc(Cl)cc2)c(-c2ccc(Cl)cc2Cl)nc1NC(=O)c1ccc(F)c(F)c1 | 315 | 
35 | CNN(C)C(=O)c1cc(-c2ccc(Cl)cc2)c(-c2ccc(Cl)cc2Cl)nc1Oc1ccc(F)c(F)c1 | 650 | 
